System: Trypanosoma cruzi
Test: Trypanocidal activity against Trypanosoma cruzi Y blood stream trypomastigotes after 24 hrs
Type: functional, organism-based

Row | SMILES | IC50
1 | CC1(C)CC2=C(O1)C1(CO1)c1ccccc1C2=O (stereo not drawn) | > 4000 µM
2 | CC1(C)OC2=C(C(=O)C(=O)c3ccccc32)C1Nc1ccc(Cl)cc1 (stereo not drawn) | 384 µM
3 | COc1ccc(NC2C3=C(OC2(C)C)c2ccccc2C(=O)C3=O)cc1 (stereo not drawn) | 88.2 µM
4 | CC1(C)OC2=C(C(=O)C(=O)c3ccccc32)C1Nc1cccc(Br)c1 (stereo not drawn) | 141 µM
5 | CC1(C)OC2=C(C(=O)C(=O)c3ccccc32)C1O (stereo not drawn) | 212 µM
6 | Cc1ccc(C)c(NC2C3=C(OC2(C)C)c2ccccc2C(=O)C3=O)c1 (stereo not drawn) | 1760 µM
7 | CC1(C)CC2=C(O1)C(=O)c1ccccc1C2=O | > 4800 µM
8 | CC1(C)OC2=C(C(=O)C(=O)c3ccccc32)C1Nc1cccc(F)c1 (stereo not drawn) | > 4000 µM
9 | CC1(C)OC2=C(C(=O)C(=O)c3ccccc32)C1Nc1cccc(Cl)c1 (stereo not drawn) | 333 µM
10 | CC1(C)CCC2=C(O1)C(=O)c1ccccc1C2=O [ALPHA-LAPACHONE] | > 4800 µM
11 | CC1(C)OC2=C(C(=O)c3ccccc3C2=O)C1N=[N+]=[N-] (stereo not drawn) | 179 µM
12 | CC1(C)OC2=C(C(=O)C(=O)c3ccccc32)C1Nc1ccc(F)cc1 (stereo not drawn) | 2520 µM
13 | CC1(C)OC2=C(C(=O)C(=O)c3ccccc32)C1Nc1cccc([N+](=O)[O-])c1 (stereo not drawn) | 86.3 µM
14 | CC1(C)OC2=C(C(=O)C(=O)c3ccccc32)C1Nc1ccc([N+](=O)[O-])cc1 (stereo not drawn) | 857 µM
15 | CC1(C)CC(Nc2ccccc2)C2=C(O1)C(=O)c1ccccc1C2=O (stereo not drawn) | 342 µM
16 | CC1(C)OC2=C(C(=O)c3ccccc3C2=O)C1Nc1ccccc1 (stereo not drawn) | > 4000 µM
17 | CC(C)=CCC1=C(O)C(=O)c2ccccc2C1=O [LAPACHOL] | 411 µM
18 | CC1(C)OC2=C(C(=O)C(=O)c3ccccc32)C1Nc1ccc(Br)cc1 (stereo not drawn) | 952 µM

Reference: ChEMBL document CHEMBL1157193, “Synthesis and anti-Trypanosoma cruzi activity of derivatives from nor-lapachones and lapachones” (Bioorg Med Chem, 2008)
